ChEMBL document CHEMBL1143026, “A synthetic method for diversification of the P1' substituent in phosphinic dipeptides as a tool for exploration of the specificity of the S1' binding pockets of leucine aminopeptidases” (Bioorg Med Chem, 2007)
Values joined by “and” are separate entries in the source; they are usually repeats but may differ in a detail not shown here. Equal values may be shown once. Active and inactive are the calls of the source. No cut-off for these calls is given here.

Experiments:
[1] = Inhibition of pig kidney cytosolic leucine aminopeptidase; set-up: species or system Sus scrofa
[2] = organism: Sus scrofa; assay: Inhibition of pig kidney microsomal leucine aminopeptidase at 10 to 20 uM
[3] = Inhibition of pig kidney microsomal leucine aminopeptidase; set-up: species or system Sus scrofa

In the case of `NC(CCc1ccccc1)P(=O)(O)CC(NCc1ccc(CO)cc1)C(=O)O` (stereo unspecified), the Ki [1] is reported as 4.21 µM and 1.42 µM and the Activity [2] is reported as “inactive”.

`NCc1ccc(CNC(CP(=O)(O)C(N)CCc2ccccc2)C(=O)O)cc1` (stereo in doubt; 8,F1) showed a Ki [1] of 2.78 µM and a Ki [3] of 19.9 µM.

In the case of `NC(CCc1ccccc1)P(=O)(O)CC(NCc1ccccc1)C(=O)O` (stereo in doubt; 6,F1) [listing 1 of 2 here], the Activity [2] is reported as “inactive”.

With `NCc1ccc(NC(CP(=O)(O)C(N)CCc2ccccc2)C(=O)O)cc1` (stereo unspecified) the Ki [1] was 4.46 µM and the Ki [3] was 0.56 µM.

`NC(CCc1ccccc1)P(=O)(O)CC(NCc1ccccc1)C(=O)O` (stereo in doubt; 6,F1) [listing 2 of 2 here] showed a Ki [1] of 10.1 µM.

With `NC(CCc1ccccc1)P(=O)(O)CC(Nc1ccccc1)C(=O)O` (stereo unspecified) the Ki [1] was 0.57 µM and 0.45 µM and the Activity [2] was “inactive”.

`NC(CCc1ccccc1)P(=O)(O)CC(NCc1ccccc1)C(=O)O` (stereo in doubt; 6) showed a Ki [1] of 12.4 µM and a Ki [3] of 1500 µM.

`NCc1ccc(CNC(CP(=O)(O)C(N)CCc2ccccc2)C(=O)O)cc1` (stereo in doubt; 8,F2) showed a Ki [1] of 2.62 µM and a Ki [3] of 2.66 µM.

In the case of `NC(CCc1ccccc1)P(=O)(O)CC(Nc1ccc(CO)cc1)C(=O)O` (stereo unspecified), the Ki [1] is reported as 10.3 µM and 6.98 µM and the Ki [3] is reported as 0.9 µM and 1.13 µM.
